Reference: patent publication US20090035295A1, “Screening Method, Process for Purifying of Non-Diffusible A-Beta Oligomers, Selective Antibodies Against Said Non-Diffusible a-Beta Oligomers and a Process for Manufacturing of Said Antibodies” (Abbott GmgH & Co. KG, priority 2005, published 2009)
“Also recorded” adds a separate entry of the source. No end group written: not given here.

Columns and labels:
[1] = target: T1, Aβ(1-42) globulomer formation (Homo sapiens, UniProt P05067); assay: Induction of Aβ(1-42) globulomer formation by fatty acids replacing SDS (SDS-PAGE); assay type: biochemical; conditions: fatty acid in place of SDS, neutral pH
T1 construct: Aβ(1-42) synthetic peptide (Cat. No. H-1368, Bachem, Switzerland); purchased Bachem H-1368; host or cells: chemical synthesis; oligomerised in house (HFIP, DMSO, 0.2% SDS or 0.5% fatty acid, dilution)
T1 sequence (P05067 672-713 limits assumed): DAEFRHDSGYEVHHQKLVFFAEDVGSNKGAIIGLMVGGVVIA
Method: Lanes: (1) control without inducing agent, (2) positive control with 0.2% SDS, (3) 0.5% lauric acid (12:0), (4) 0.5% oleic acid (18:1), (5) linoleic acid […], (6) eicosapentanoic acid (20:5), (7) docosatetranoic acid (22:4), (8) docosahexanoic acid (22:6), (9) positive control with 0.2% SDS, (10) 1% arachidonic acid. Yields of Aβ(1-42) globulomer (g, indicated with arrowheads) differ between various fatty acids;
A solution of Aβ(1-42) globulomers was prepared as described in example 5a of WO2004/067561. Briefly, Aβ(1-42) synthetic peptide (Cat. No. H-1368, Bachem, Switzerland) was suspended in 1,1,1,3,3,3-hexafluoro-2-propanol (HFIP) at […] and incubated for complete solubilization under shaking at 37° C. for 1.5 h. HFIP was removed by evaporation in a SpeedVac and Aβ(1-42) resuspended at a concentration of 5 mM in dimethyl sulfoxide (DMSO) and 20 sec sonicated. The HFIP pretreated Aβ(1-42) was diluted in phosphate buffered solution (PBS) (20 mM NaH2PO4, 140 mM NaCl, pH 7.4) to 400 μM and 1/10 volume 2% SDS (in H2O) added (final concentration of 0.2% sodium dodecyl sulfate (SDS)).

APP/Lo mice = assay: Novel object recognition task after active immunization of APP/Lo mice; assay type: in vivo, mouse; conditions: for RI compared with mice treated with Aβ(1-42) monomer or vehicle: P<0.01, ANOVA, post-hoc Holm-Sidak t-test; for Short term memory for objects: active immunization
Description: APP [V717I] C57BI×FVB female mice (n=36; 6 weeks old) were used for this study (Moechars et al., 1999). All mice were housed and bred in the animal housing facilities of the Catholic University Leuven, Campus Gasthuisberg, in accordance with the Belgian ethical law on housing, breeding and handling laboratory animals.
They were genotyped by polymerase chain reaction (PCR) at the age of 3 weeks and were double checked by a second PCR at the onset of the study. All mice were blind randomised, age-matched and allocated randomly to a treatment. Animals were re-caged by treatment group one day before the onset of the study in order to allow them to familiarize to the new cage context. […] The food was stored under dry and cool conditions in a well-ventilated storage room. The amount of water and food was checked daily, supplied when necessary and standard refreshed twice a week. Mice were housed under a reversed day-night rhythm: 14 hours light/10 hours darkness, light starting at 7 p.m., in standard metal cages type RVS T2 (area of 540 cm^2) equipped with solid floors and layer of bedding litter.
The first injection contained 50% (v/v) complete Freund's Adjuvants (Difco Laboratories, Detroit, Mich., USA, ref no 263810) while the boost injections contained 50% (v/v) incomplete Freund's Adjuvant (Difco Laboratories, Detroit, Mich., USA, ref no 263910). Administration of compounds was performed every 3 weeks during 3 months (at week 0/3/6/9/12). • Novel object recognition task in immunized mice:
After the last injection all mice underwent a novel objection recognition task. The protocol used followed the method as described by Dewachter I. et al., Journal of Neuroscience, 2002, 22(9):3445-3453. Mice were familiarized for one hour to a Plexiglas open-field box (52×52×40 cm) with black vertical walls and a translucent floor, dimly illuminated by a lamp placed underneath the box. The next day the animals were placed in the same box and submitted to a 10 minutes acquisition trial. During this trial mice were placed individually in the open field in the presence of object A (blue ball or red cube, similar sized of ±4 cm), and the duration (timeAA) and the frequency (FreqAA) exploring object A (when the animals snout was directed towards the object at a distance of <1 cm and the mice were actively sniffing in the direction of the object) was recorded by a computerized system (Ethovision, Noldus information Technology, Wageningen, the Netherlands). During a 10 minutes retention trial (second trial) performed 3 hours later, a novel object (object B, red cube or blue ball) was placed together with the familiar object (object A) into the open field. (FreqA and FreqB and TimeA and TimeB, respectively).
The recognition index (RI), defined as the ratio of the duration in which the novel object was explored over the duration in which both objects were explored [TimeB/(TimeA+TimeB)×100], was used to measure non-spatial memory. The duration and frequency object A was explored during the acquisition trial (TimeAA and FreqAA) was used to measure curiosity.

[2] = In vitro stability in PBS at different temperatures, SDS-PAGE; assay type: physicochemical
Method: The sample at 0.5 mg/ml in 20 mM NaH2PO4; 140 mM NaCl; pH 7.4 was incubated at room temperature and 37° C. for 1 day and 4 days, respectively. An aliquot of 10 μl of the samples was analyzed by SDS-PAGE.
An aliquot of 100 μl of each of the samples was analyzed by SDS-PAGE.

hippocampal neurons = assay: Binding of Aβ forms to cultured hippocampal neurons (immunofluorescence); assay type: cell-based, rat
Method: (§1) Hippocampal cells from rat brain (QBM Cell Science, Canada) were cultured in 24-well plates on poly-L-lysine coated coverslips (BD Biosciences, Germany) in Neurobasal medium with B27 supplement (Invitrogen, Germany) at 37° C., 5% 002. To some cultures mitosis inhibitors (35 μg/ml uridine, 15 μg/ml 5-fluoro-2′-deoxyuridine) were added at DIV6 to prevent an overgrowing with glia. Unless otherwise stated hippocampal cells were used at DIV13-14.
Cells were rinsed three times with 1 ml medium and fixed with 3.7% buffered formaldehdye (Accustain, Sigma, Germany). Unspecific binding sites were blocked by incubation with 10% normal goat serum in PBS (pH 7.4) for 90 min at room temperature to which 0.1% Triton X-100 was added in the case of intracellular counterstaining. […] After each antibody incubation cells were washed three times with PBS and finally mounted in ProLong antifade reagent (Molecular Probes, Germany).

glia = assay: Binding of Aβ(1-42) globulomer to glia in hippocampal cultures; assay type: cell-based, rat; conditions: hippocampal preparation, GFAP positive cells
Method: as §1, with “DIV13-14. When Aβ-forms were added, 750 μL fresh 37° C. warm medium containing the Aβ-forms were exchanged of the total 1 ml. Incubation took place for 15 min at 37° C., 5% CO2.” for “DIV13-14.”
Cells were rinsed three times with 1 ml medium and fixed with 3.7% buffered formaldehdye (Accustain, Sigma, Germany). Unspecific binding sites were blocked by incubation with 10% normal goat serum in PBS (pH 7.4) for 90 min at room temperature to which 0.1% Triton X-100 was added in the case of intracellular counterstaining. Primary antibodies (anti Aβ 6E10 (Signet Laboratories, USA), 1:2000; anti GFAP (Dako Cytomation, Germany), 1:2500; anti MAP2 (Chemicon International, Germany), 1:1000) and secondary antibodies (Alexa 488, 1:500; Alexa 635, 1:500; Molecular Probes, Germany) were subsequently incubated for 2 h at room temperature in 10% normal goat serum in PBS (pH 7.4). […]

neuronal cell-lines = assay: Binding of Aβ(1-42) globulomer to neuronal cell-lines; assay type: cell-based; conditions: data not shown
long-term potentiation = assay: Long-term potentiation in rat brain slices (CA1 field potentials); assay type: cell-based
Method: Slices were prepared from male Sprague-Dawley rats (7-8 weeks old). Isolated hemispheres were trimmed and then cut using a vibratome. Slices ([…]) were directly transferred to an interface recording chamber and continuously perfused at 33° C. with oxygenated artificial CSF (aCSF: 118 mM NaCl, 1.24 mM KH2PO4, 10 mM glucose, 2 mM MgSO4, 2.5 mM CaCl2, 5 mM KCl, 25.6 mM NaHCO3) at a flow rate of 1.8 ml/min. Freshly prepared slices were allowed to equilibrate for at least one hour before recording. Field potentials were obtained from stratum radiatum of CA1 using glass microelectrodes (0.8-1.2 MΩ) filled with aCSF. The Schaffer collateral was stimulated by a bipolar tungsten electrode (0.5 MO, Science Products GmbH, Germany). Constant voltage biphasic pulses (0.1 ms/phase; range 1-5 V) were applied once per minute at an intensity yielding 30% of the fEPSP maximum. LTP was induced by 2 trains of 100 Hz (1 sec/train with 10 sec intertrain intervall) using the same intensity and pulse length. […] Signals were digitized by a Power CED 1401 and analyzed using the software Signal 2.14 (Cambridge Electronic Design Ltd., Cambridge). For statistical comparison data were analyzed by 2-way repeated measures ANOVA using SAS.

[3] = Intracranial injection in rats: in vivo binding and tissue penetration; conditions: rat
Method: For electrophysiological and histological studies, male Sprague-Dawley rats were obtained from Janvier (France) at an age of about 8 weeks.
The rats (260-430 g) were anesthetized with pentobarbital (60 mg/kg i.p.; Narcoren) and fixed in a stereotaxic apparatus according to Paxinos and Watson^36. […] A total volume of 4.3 μL was infused by a 10 μL Hamilton syringe attached to a motorized micropump (WPI, Germany) during 5 min with the cannula being left in place for additional 2 min. […] The infusion was applied via a 10 μL Hamilton syringe during 5 min with the cannula being left in place for additional 5 min.
Therefore, rats were deeply anesthetized with Narcoren. […] Then, the rats were transcardially perfused with 10 mM PBS (pH 7.2) for 5 min, followed by 4% paraformaldehyde (PFA) in PBS. The brains were removed, postfixed overnight in 4% PFA in PBS containing 30% sucrose and transferred into 30% sucrose in PBS for cryoprotection.
A Cy3-labeled donkey anti-mouse antibody (Jackson Laboratories) was used for fluorescence labelling for 1 h. Between the steps and at the end, sections were thoroughly washed in TBST three times for 5 min, after which they were mounted onto glass slides, air-dried and cover-slipped with Vectashield hardest mounting medium containing DAPI (Vector Laboratories) to visualize cell nuclei. All incubations were performed at room temperature. Some sections were also stained with 0.05% thioflavine S (Sigma, Germany) in 50% ethanol for 10 min, followed by two rinses of 100% ethanol for 5 min before embedding in Vectashield. Analysis of labelling was performed under a confocal fluorescence microscope (Zeiss LSM 510 Meta, Germany).

Question: For `CC/C=C\C/C=C\C/C=C\C/C=C\C/C=C\C/C=C\CCC(=O)O` [docosahexanoic acid], which “Induction of the characteristic 38/48 kDa Aβ(1-42) globulomer” value (“Induction” for short) [1] is on record?
Answer: could not generate

Question: Which “RI compared with mice treated with Aβ(1-42) monomer or vehicle” value (APP/Lo mice) does the source give for “Aβ(20-42) globulomer: truncated globulomer from Aβ(20-42) peptide or thermolysin proteolysis of Aβ(1-42) globulomer (FAEDVGSNKGAIIGLMVGGVVIA; also: globulomer (oligomeric assembly))” here?
Answer: significantly higher

Question: And the “Short term memory for objects” value (APP/Lo mice)?
Answer: selectively improved

Question: And the “Recognition index (RI)” value (APP/Lo mice; second encounter, 3 hours after acquisition, P<0.01 vs chance level)?
Answer: more than 50%

Question: Which “Induction” value [1] does the source give for `CCCCCCCCCCCC(=O)O` [lauric acid] here?
Answer: induced

Question: Which “Induction” value [1] does the source give for `CC/C=C\C/C=C\C/C=C\C/C=C\C/C=C\CCCC(=O)O` [eicosapentanoic acid] here?
Answer: created a partly shifted oligomer

Question: For `CCCCCCCC/C=C\CCCCCCCC(=O)O` [oleic acid], which “Induction” value [1] is on record?
Answer: induced

Question: Which “Induction” value [1] does the source give for `CCCCC/C=C\C/C=C\CCCCCCCC(=O)O` [linoleic acid] here?
Answer: could not generate

Question: With `CCCCC/C=C\C/C=C\C/C=C\C/C=C\CCCC(=O)O` [arachidonic acid] as the molecule, how does the “Induction” value [1] read?
Answer: induced

Question: For “Aβ(1-42) globulomer: soluble, globular, non-covalent association of about 12 Aβ(1-42) peptides generated from synthetic peptide with SDS”, which “Stable in PBS” value ([2]; PBS, ambient temperature and 37° C.) is on record?
Answer: at least 4 days

Question: What about the “Globulomer structure maintained without disassembly or further polymerization to fibrils” value ([2]; in vitro, physiological temperature (37° C.)) of the same molecule?
Answer: up to 4 days

Question: What about the “Binding to hippocampal neurons” value (hippocampal neurons; 200 nM based on monomer (17 nM globulomer), 15 min, 37° C.) of the same molecule?
Answer: strong binding

Question: What about the “Hippocampal neurons binding globulomer” value (hippocampal neurons; DIV8) of the same molecule?
Answer: −1%

Question: And the Binding to glia (glia)?
Answer: did not bind

Question: What about the “Binding to neuronal cell-lines” value (neuronal cell-lines) of the same molecule?
Answer: negative

Question: What about the “Time after tetanization at which potentiation was significantly impaired (as early as)” value (long-term potentiation; 42 nM, p<0.05) of the same molecule?
Answer: 5 min

Question: What about the “High frequency stimulation-induced LTP” value (long-term potentiation; 42 nM, rat brain slices) of the same molecule?
Answer: completely blocks; also recorded: complete block

Question: What about the “Basic synaptic functioning (input/output relation)” value (long-term potentiation; treated versus untreated slices) of the same molecule?
Answer: not impaired

Question: What about the “Binding to cells of the ventricle walls” value ([3]; injection into ventricle) of the same molecule?
Answer: rapid and persistent binding

Question: What about the “Cell toxicity along the ventricle wall (cell density)” value ([3]; injection into ventricle) of the same molecule?
Answer: without obvious cell toxicity

Question: And the “Diffusion from ependyme into underlying brain tissue” value ([3]; injection into ventricle)?
Answer: without detectable diffusion

Question: What about the “Presence in cerebrospinal fluid after injection” value ([3]; injection into ventricle, data not shown) of the same molecule?
Answer: completely disappeared

Question: And the Tissue penetration ([3]; intracerebral injection)?
Answer: Poor tissue penetration

Question: What about the “RI compared with mice treated with Aβ(1-42) monomer or vehicle” value (APP/Lo mice) of the same molecule?
Answer: significantly higher

Question: And the “Short term memory for objects” value (APP/Lo mice)?
Answer: selectively improved

Question: For docosatetranoic acid, which “Induction” value [1] is on record?
Answer: could not generate
